One assay deals with CYP3A4 (Homo sapiens, UniProt P08684). Put plainly: Biological Test Example 6: CYP3A4 inhibition (erythromycin N-demethylation). In kind it is in vitro ADME.
Assay [1] has as its target T1, CYP2C9 (Homo sapiens, UniProt P11712).
T1 construct: purchased Invitrogen 2859; host or cells: insect cells infected with baculovirus (microsomes)
Put plainly: Biological Test Example 7: CYP2C9 inhibition (naproxen O-demethylation). In kind it is in vitro ADME.

A further assay deals with CYP2C19 (Homo sapiens, UniProt P33261). Put plainly: Biological Test Example 8: CYP2C19 inhibition (diazepam N-demethylation). In kind it is in vitro ADME.
CYP2C19, sequence (P33261 whole entry): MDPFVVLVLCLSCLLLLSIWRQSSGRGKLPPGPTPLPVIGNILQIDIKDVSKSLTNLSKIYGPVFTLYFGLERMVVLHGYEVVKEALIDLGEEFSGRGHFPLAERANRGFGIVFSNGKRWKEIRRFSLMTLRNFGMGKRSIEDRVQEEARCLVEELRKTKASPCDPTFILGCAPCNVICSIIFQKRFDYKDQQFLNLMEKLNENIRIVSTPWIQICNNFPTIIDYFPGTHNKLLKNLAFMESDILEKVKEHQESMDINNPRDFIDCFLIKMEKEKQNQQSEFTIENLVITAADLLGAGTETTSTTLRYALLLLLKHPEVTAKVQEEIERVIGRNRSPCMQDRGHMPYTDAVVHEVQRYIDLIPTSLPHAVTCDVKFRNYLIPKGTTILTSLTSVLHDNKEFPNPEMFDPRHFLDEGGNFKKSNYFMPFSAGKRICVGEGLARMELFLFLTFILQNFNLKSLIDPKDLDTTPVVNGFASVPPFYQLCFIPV
In assay [2] the target is T2, 11β-HSD1 (Homo sapiens, UniProt P28845). Put plainly: biochemical. The conditions noted are these: for inhibition at 0.1 µM: read-out: Average % inhibition at 100 nM.
T2 sequence (P28845 whole entry): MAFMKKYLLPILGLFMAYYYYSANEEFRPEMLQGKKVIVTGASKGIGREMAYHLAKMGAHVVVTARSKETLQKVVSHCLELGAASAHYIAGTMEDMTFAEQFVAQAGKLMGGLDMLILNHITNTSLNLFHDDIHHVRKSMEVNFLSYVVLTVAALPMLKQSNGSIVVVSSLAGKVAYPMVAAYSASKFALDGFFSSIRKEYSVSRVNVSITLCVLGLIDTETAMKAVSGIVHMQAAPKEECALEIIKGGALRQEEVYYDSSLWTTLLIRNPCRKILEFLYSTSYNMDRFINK
Assay [3] concerns the target T2, 11β-HSD1. Put plainly: Biological Test Example 4: microsomal 11β-HSD1 in the presence of 50% human plasma. The conditions noted are these: for Shift: IC50 in Test Example 4 divided by IC50 in Test Example 1.
The target in assay [4] is T1, CYP2C9. The assay is described as follows: Biological Test Example 9: CYP2C9 inhibition (Invitrogen kit, fluorogenic OOMR). In kind it is in vitro ADME.
[5] abbreviates: Biological Test Example 1 IC50 (nM).
Where [6] appears, read: IC50 Range, Biological Test Example 1.

CYP3A4, sequence (P08684 whole entry): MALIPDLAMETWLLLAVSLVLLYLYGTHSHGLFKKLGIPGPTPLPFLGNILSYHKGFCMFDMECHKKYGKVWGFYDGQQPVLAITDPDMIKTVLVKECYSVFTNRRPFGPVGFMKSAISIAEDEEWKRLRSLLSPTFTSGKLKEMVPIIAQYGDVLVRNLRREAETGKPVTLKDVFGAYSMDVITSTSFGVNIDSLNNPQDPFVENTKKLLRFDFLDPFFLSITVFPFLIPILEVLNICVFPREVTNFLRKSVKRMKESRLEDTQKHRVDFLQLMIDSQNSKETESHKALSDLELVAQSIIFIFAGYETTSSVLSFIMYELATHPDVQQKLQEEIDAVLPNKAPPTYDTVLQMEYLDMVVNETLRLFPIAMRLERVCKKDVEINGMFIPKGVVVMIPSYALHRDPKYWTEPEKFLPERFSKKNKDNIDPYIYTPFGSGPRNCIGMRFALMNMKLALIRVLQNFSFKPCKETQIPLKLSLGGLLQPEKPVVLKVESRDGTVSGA
T1 sequence (P11712 whole entry): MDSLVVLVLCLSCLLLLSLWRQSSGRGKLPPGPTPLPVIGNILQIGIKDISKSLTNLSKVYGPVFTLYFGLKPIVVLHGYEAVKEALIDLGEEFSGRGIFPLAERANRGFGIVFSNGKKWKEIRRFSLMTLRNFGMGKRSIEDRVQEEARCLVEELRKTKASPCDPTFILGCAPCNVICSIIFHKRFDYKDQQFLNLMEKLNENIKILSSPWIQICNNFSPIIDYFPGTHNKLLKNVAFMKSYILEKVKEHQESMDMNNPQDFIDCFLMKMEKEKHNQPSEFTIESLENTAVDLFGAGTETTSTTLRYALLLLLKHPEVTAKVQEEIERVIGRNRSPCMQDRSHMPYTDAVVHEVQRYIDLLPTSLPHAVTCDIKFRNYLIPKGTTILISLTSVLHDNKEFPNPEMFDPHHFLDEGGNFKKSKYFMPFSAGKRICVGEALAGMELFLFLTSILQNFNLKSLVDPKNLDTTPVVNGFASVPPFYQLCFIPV

`C[C@@H](c1ccc(-c2cc(S(C)(=O)=O)ccn2)cc1)N1CC[C@](CC(C)(C)O)(c2ccccc2)OC1=O` [EXAMPLE 185, (S)-6-(2-Hydroxy-2-methyl-propyl)-3-{(S)-1-[4-(4-methanesulfonyl-pyridin-2-yl)-phenyl]-ethyl}-6-phenyl-[1,3]oxazinan-2-one]: the IC50 (in general, the concentration at which inhibition is half-maximal) on CYP3A4 was determined as 42.9 µM; on CYP2C9 [1] it was 30 µM; on CYP2C19 it was 25.7 µM.

For `C[C@@H](c1ccc(-c2cccc(S(C)(=O)=O)n2)cc1)N1CC[C@](CC(C)(C)O)(c2ccccc2)OC1=O` [EXAMPLE 190, (S)-6-(2-Hydroxy-2-methyl-propyl)-3-{(S)-1-[4-(6-methanesulfonyl-pyridin-2-yl)-phenyl]-ethyl}-6-phenyl-[1,3]oxazinan-2-one], the IC50 against CYP3A4 was 33.7 µM; at CYP2C9 [1], more than 50 µM; against CYP2C19 it was more than 50 µM.

For `C[C@@H](c1ccc(-c2cncs2)cc1)N1CC[C@](CC(C)(C)O)(c2ccccc2)OC1=O` [EXAMPLE 171, (S)-6-(2-Hydroxy-2-methyl-propyl)-6-phenyl-3-[(S)-1-(4-thiazol-5-yl-phenyl)-ethyl]-[1,3]oxazinan-2-one], the IC50 was less than 0.4 µM against CYP3A4, 9.2 µM at CYP2C9 [1] and 0.8 µM against CYP2C19.

For `Cc1nn(C)c(C)c1-c1ccc([C@H](C)N2CC[C@](CC(C)(C)O)(c3ccccc3)OC2=O)cc1` [EXAMPLE 177, (S)-6-(2-Hydroxy-2-methyl-propyl)-6-phenyl-3-{(S)-1-[4-(1,3,5-trimethyl-1H-pyrazol-4-yl)-phenyl]-ethyl}-[1,3]oxazinan-2-one], the results for the IC50 on CYP3A4, on CYP2C9 [1] and at CYP2C19 were more than 50 µM, 8.8 µM and 17.7 µM, respectively.

In the case of `C[C@@H](c1ccc(-c2nncs2)cc1)N1CC[C@](CC(C)(C)O)(c2ccccc2)OC1=O` [EXAMPLE 173, (S)-6-(2-Hydroxy-2-methyl-propyl)-6-phenyl-3-[(S)-1-(4-[1,3,4]thiadiazol-2-yl-phenyl)-ethyl]-[1,3]oxazinan-2-one], the IC50 on CYP3A4 stood at 25.1 µM; against CYP2C9 [1], 27.2 µM; at CYP2C19, 33.6 µM.

As for `Cc1cc(-c2ccc([C@H](C)N3CC[C@](CCO)(c4ccc(F)cc4)OC3=O)cc2)ccn1` [EXAMPLE 75, (S)-6-(4-fluorophenyl)-6-(2-hydroxyethyl)-3-((S)-1-(4-(2-methylpyridin-4-yl)phenyl)ethyl)-1,3-oxazinan-2-one], the IC50 on 11β-HSD1 [2] (setting [5]) was 1.1 nM; against 11β-HSD1 [2] (setting [6]) it was less than 100 nM; at CYP3A4, 14.9 µM; at 11β-HSD1 [3] it was 0.0098 µM; at CYP2C9 [4] it was 9.1 µM; on CYP2C9 [1] it was 12.2 µM. The inhibition (in general, the relative decrease from the control value, in per cent) at 0.1 µM on 11β-HSD1 [2] was found to be 97.7%.

In the case of `Cc1cnc(-c2ccc([C@H](C)N3CC[C@](CC(C)(C)O)(c4ccccc4)OC3=O)cc2)cn1` [EXAMPLE 151, (S)-6-(2-hydroxy-2-methylpropyl)-3-((S)-1-(4-(5-methylpyrazin-2-yl)phenyl)ethyl)-6-phenyl-1,3-oxazinan-2-one], the figures for the IC50 at CYP2C9 [1] and on CYP2C19 were 32.6 µM and 32.3 µM, respectively.

For the compound `Cc1cc(-c2ccc([C@H](C)N3CC[C@](CCCO)(c4ccc(F)cc4)OC3=O)cc2)nc(C)n1` [EXAMPLE 127, (R)-3-((S)-1-(4-(2,6-dimethylpyrimidin-4-yl)phenyl)ethyl)-6-(4-fluorophenyl)-6-(3-hydroxypropyl)-1,3-oxazinan-2-one], the IC50 against 11β-HSD1 [2] (setting [5]) is 6.1 nM; on 11β-HSD1 [2] (setting [6]), less than 100 nM; on 11β-HSD1 [3], 0.0698 µM; against CYP2C9 [4] it was more than 30 µM. Further, the inhibition at 0.1 µM on 11β-HSD1 [2] came to 93.7%. Moreover, the Shift on 11β-HSD1 [3] turned out to be 11.5.

As to `CNC(=O)c1ccc(-c2ccc([C@H](C)N3CC[C@](CC(C)(C)O)(c4ccccc4)OC3=O)cc2)nc1` [EXAMPLE 150, 6-(4-{1-[6-(2-Hydroxy-2-methyl-propyl)-2-oxo-6-phenyl-[1,3]oxazinan-3-yl]-ethyl}-phenyl)-N-methyl-nicotinamide], the values for the IC50 on CYP2C9 [1] and against CYP2C19 were 28.8 µM and 33.8 µM, respectively.

With `COc1cncc(-c2ccc([C@H](C)N3CC[C@](CCCO)(c4ccc(F)cc4)OC3=O)cc2)c1` [EXAMPLE 53, (R)-6-(4-fluorophenyl)-6-(3-hydroxypropyl)-3-((S)-1-(4-(5-methoxypyridin-3-yl)phenyl)ethyl)-1,3-oxazinan-2-one], the IC50 against 11β-HSD1 [2] (setting [5]) was 1.3 nM; at 11β-HSD1 [2] (setting [6]), less than 100 nM; on 11β-HSD1 [3] it was 0.0185 µM; against CYP2C9 [4], 6.6 µM. Further, on 11β-HSD1 [2], the inhibition at 0.1 µM was determined as 98.7%. Besides, the Shift on 11β-HSD1 [3] is recorded as 14.6.

Regarding `C[C@@H](c1ccc(-c2cncnc2)cc1)N1CC[C@](CCCO)(c2ccc(F)cc2)OC1=O` [EXAMPLE 129, (R)-6-(4-fluorophenyl)-6-(3-hydroxypropyl)-3-((S)-1-(4-(pyrimidin-5-yl)phenyl)ethyl)-1,3-oxazinan-2-one], the 50% inhibitory concentration (IC50) at 11β-HSD1 [2] (setting [5]) was 4.3 nM; against 11β-HSD1 [2] (setting [6]) it was less than 100 nM; on 11β-HSD1 [3], 0.0173 µM; on CYP2C9 [4] it was 28.3 µM. Besides, the inhibition at 0.1 µM at 11β-HSD1 [2] turned out to be 93.9%. The Shift at 11β-HSD1 [3] was 4.1.

In the case of `C[C@@H](c1ccc(-c2cccnc2)cc1)N1CC[C@](CCCNS(C)(=O)=O)(c2ccccc2)OC1=O` [EXAMPLE 91, N-(3-((R)-2-oxo-6-phenyl-3-((S)-1-(4-(pyridin-3-yl)phenyl)ethyl)-1,3-oxazinan-6-yl)propyl)methanesulfonamide], the IC50 on 11β-HSD1 [2] (setting [5]) was 1.4 nM; against 11β-HSD1 [2] (setting [6]), less than 100 nM; at 11β-HSD1 [3], 0.0137 µM; against CYP2C9 [4] it was 17.3 µM. Moreover, the inhibition at 0.1 µM at 11β-HSD1 [2] stood at 90.2%.

With `C[C@@H](c1ccc(-c2ccc(C(N)=O)cn2)cc1)N1CC[C@](CC(C)(C)O)(c2ccccc2)OC1=O` [EXAMPLE 143, 6-(4-((S)-1-((S)-6-(2-hydroxy-2-methylpropyl)-2-oxo-6-phenyl-1,3-oxazinan-3-yl)ethyl)phenyl)nicotinamide], the IC50 on CYP2C9 [1] and against CYP2C19 was more than 50 µM in each case.

Turning to `C[C@@H](c1ccc(-c2ccc(C(N)=O)cn2)cc1)N1CC[C@](CCCO)(c2ccccc2)OC1=O` [EXAMPLE 140, 6-(4-((S)-1-((R)-6-(3-hydroxypropyl)-2-oxo-6-phenyl-1,3-oxazinan-3-yl)ethyl)phenyl)nicotinamide], the IC50 is 1.1 nM against 11β-HSD1 [2] (setting [5]), less than 100 nM at 11β-HSD1 [2] (setting [6]), 0.0068 µM on 11β-HSD1 [3] and 20.6 µM against CYP2C9 [4]. Besides, at 11β-HSD1 [2], the inhibition at 0.1 µM is 98.7%. For the same compound, on 11β-HSD1 [3], the Shift is listed as 6.4.

Regarding `C[C@@H](c1ccc(-c2ccc(C(F)(F)F)nc2)cc1)N1CC[C@](CCCO)(c2ccc(F)cc2)OC1=O` [EXAMPLE 44, (R)-6-(4-fluorophenyl)-6-(3-hydroxypropyl)-3-((S)-1-(4-(6-(trifluoromethyl)pyridin-3-yl)phenyl)ethyl)-1,3-oxazinan-2-one], the IC50 against 11β-HSD1 [2] (setting [5]) was 0.7 nM; against 11β-HSD1 [2] (setting [6]), less than 100 nM; on 11β-HSD1 [3], 0.0042 µM; against CYP2C9 [4], 1.4 µM. Besides, the inhibition at 0.1 µM at 11β-HSD1 [2] amounted to 100%.

Turning to `C[C@@H](c1ccc(-c2cncc(F)c2)cc1)N1CC[C@](CCCO)(c2ccc(F)cc2)OC1=O` [EXAMPLE 148, (R)-6-(4-fluorophenyl)-3-((S)-1-(4-(5-fluoropyridin-3-yl)phenyl)ethyl)-6-(3-hydroxypropyl)-1,3-oxazinan-2-one], the IC50 against 11β-HSD1 [2] (setting [5]) was 0.7 nM; against 11β-HSD1 [2] (setting [6]), less than 100 nM; at 11β-HSD1 [3], 0.0048 µM; against CYP2C9 [4] it was 1.7 µM. Besides, the inhibition at 0.1 µM on 11β-HSD1 [2] turned out to be 97.4%. Also, on 11β-HSD1 [3], the Shift is listed as 7.3.
